In one assay the target is T1, androgen receptor (AR) (Homo sapiens, UniProt P10275).
T1 construct: of the androgen receptor (AR, amino acids 667-919); expressed in transfected cells; host or cells: CHO K1
T1 sequence (P10275 668-920): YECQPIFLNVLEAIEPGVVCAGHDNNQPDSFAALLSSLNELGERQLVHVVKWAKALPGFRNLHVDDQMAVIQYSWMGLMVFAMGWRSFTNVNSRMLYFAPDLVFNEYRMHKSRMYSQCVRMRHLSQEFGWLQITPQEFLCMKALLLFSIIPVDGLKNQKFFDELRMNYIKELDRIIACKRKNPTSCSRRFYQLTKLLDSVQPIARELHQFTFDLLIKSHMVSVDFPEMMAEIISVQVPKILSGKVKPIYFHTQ
As to the kind of experiment: Cellular in vitro assay, GAL4-AR chimera luciferase reporter in CHO K1 cells (selectivity). It counts as cell-based. Particulars: antagonism vs dihydrotestosterone; CHO K1 GAL4-AR LBD luciferase reporter. Put shortly: (§1)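 CHO K1 cells stably expressing GAL4 DNA-binding domain fused to human MR, PR or AR ligand-binding domains plus GAL4-driven firefly luciferase; compounds added 10–30 min before agonist (aldosterone, progesterone or dihydrotestosterone), luciferase read after 5–6 h; IC50 from sigmoidal concentration–response curves.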

Assay [1] concerns the target T2, progesterone receptor (PR) (Homo sapiens, UniProt P06401).
T2 construct: of the progesterone receptor (PR, amino acids 680-933); expressed in transfected cells; host or cells: CHO K1
T2 sequence (P06401 680-933): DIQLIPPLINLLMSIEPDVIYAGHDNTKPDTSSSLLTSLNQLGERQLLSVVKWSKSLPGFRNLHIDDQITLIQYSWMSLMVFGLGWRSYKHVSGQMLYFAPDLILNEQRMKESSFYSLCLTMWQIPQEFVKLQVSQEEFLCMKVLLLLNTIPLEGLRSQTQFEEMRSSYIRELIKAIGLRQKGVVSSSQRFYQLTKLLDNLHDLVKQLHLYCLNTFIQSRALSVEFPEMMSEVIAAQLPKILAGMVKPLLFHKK
As to the kind of experiment: Cellular in vitro assay, GAL4-PR chimera luciferase reporter in CHO K1 cells (selectivity). Particulars: antagonism vs progesterone; CHO K1 GAL4-PR LBD luciferase reporter. The assay is classed as cell-based. The gist of the method: as §1

The next assay has as its target T3, CYP3A4 (Homo sapiens, UniProt P08684).
T3 construct: using human liver microsomes (pool from various individuals); from tissue; host or cells: human liver microsomes (pool from various individuals)
In words: CYP inhibition assay with human liver microsomes. It counts as in vitro ADME. From the text:
Inhibitory properties of an active ingredient on the cytochromes P450 (CYP) of the human body may entail extensive clinical effects (drug interactions) because most of the prescribed medicaments are degraded (metabolized) by these enzymes. The ones involved in this are in particular the CYP isoenzymes of the 1A and 2C families, CYP2D6 and, with a proportion of almost 50%, CYP3A4. In order to preclude or minimize these possible drug interactions (Drug-Drug Interactions, DDI), the ability of substances to be able to inhibit CYP1A2, CYP2C8, CYP2C9, CYP2D6 and CYP3A4 in humans is investigated using human liver microsomes (pool from various individuals). This takes place by measuring CYP isoform-specific metabolites formed from standard substrates such as, for example, phenacetin, amodiaquin, diclofenac, dextromethorphan, midazolam and testosterone. The inhibitory effects are investigated at six different concentrations of the test compounds (1.5, 3.1, 6.3, 12.5, 25 and 50 μM as maximum concentration or 0.6, 1.3, 2.5, 5, 10 and 20 μM as maximum concentration), comparing with the extent of the CYP isoform-specific metabolite formation of the standard substrates in the absence of the test compounds, and calculating the corresponding IC50 values. CYP isoform-specific standard inhibitors such as, for example, fluvoxamine, quercetin, sulfaphenazole, fluoxetine and ketoconazole serve as control of the results obtained. In order to obtain indications of the possible mechanism-based inhibitors (MBI) on CYP3A4, the human liver microsomes are incubated in the presence of the inhibitor to be investigated for 30 minutes before the addition of midazolam or testosterone as standard substrates of CYP3A4. A reduction in the IC50 obtained by comparison with the mixture without preincubation serves as an indicator of a mechanism-based inhibition. Mibefradil serves as positive control.
The incubations of the standard substrates with human liver microsomes (23-233 μg/mL) in the presence of the test compound (as potential inhibitor) are carried out in 96-well plates in a workstation (Tecan, Genesis, Crailsheim, Germany) at 37° C. The incubation times are 15-20 minutes. The test compounds are preferably dissolved in acetonitrile (1.0 or 2.5 mM stock solution). The 96-well plates are produced by sequential addition of a stock solution of NADP+, EDTA, glucose 6-phosphate and glucose-6-phosphate dehydrogenase in phosphate buffer (pH 7.4), the test compound, and a solution of standard substrate and human liver microsomes in phosphate buffer (pH 7.4). The total volume is 200 μl. The corresponding control incubations with and without standard inhibitor also take place on the 96-well plate. The incubations are stopped after the respective incubation time by adding 100 μl of acetonitrile in which there is a suitable internal standard. Precipitated proteins are removed by centrifugation (3000 rpm, 10 minutes, 10° C.). The resulting supernatants of the respective plates are combined on one plate and analyzed by LC-MS/MS. The […] values are generated from the resulting measured data and used to assess the inhibitory potential of the test compound.

Where [2] appears, read: 30 min preincubation with test compound before substrate, read-out: CYP 3A4 Preincubation, 30 min.
[3] abbreviates: without preincubation, read-out: CYP 3A4 Coincubation.

Here are results for 10 compounds from patent publication US20110201564A1, “SUBSTITUTED 7-SULFANYLMETHYL, 7-SULFINYLMETHYL AND 7-SULFONYLMETHYL INDOLES AND USE THEREOF” (BAYER SCHERING PHARMA AKTIENGESELLSCHAFT, priority 2008, published 2011).

SMILES strings stand for the structures. Read-outs that look alike come from different tables or passages of the source.

T3 sequence (P08684 whole entry): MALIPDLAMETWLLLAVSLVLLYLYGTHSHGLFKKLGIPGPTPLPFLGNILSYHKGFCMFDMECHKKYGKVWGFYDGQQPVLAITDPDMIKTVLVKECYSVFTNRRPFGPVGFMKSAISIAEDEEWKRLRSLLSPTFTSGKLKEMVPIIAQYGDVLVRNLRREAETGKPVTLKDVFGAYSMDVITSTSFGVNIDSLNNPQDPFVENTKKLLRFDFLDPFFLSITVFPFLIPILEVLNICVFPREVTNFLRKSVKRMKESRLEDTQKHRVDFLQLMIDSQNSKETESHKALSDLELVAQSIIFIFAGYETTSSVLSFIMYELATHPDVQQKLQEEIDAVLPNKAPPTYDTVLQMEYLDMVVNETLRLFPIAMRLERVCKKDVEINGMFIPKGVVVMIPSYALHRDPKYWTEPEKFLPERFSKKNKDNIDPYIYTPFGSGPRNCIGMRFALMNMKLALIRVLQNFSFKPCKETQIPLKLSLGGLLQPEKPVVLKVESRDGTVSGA

`CCC(CCC#N)(c1ccc(Cl)cc1)c1c[nH]c2c(CS(C)(=O)=O)cccc12` (stereo not shown) [Example 172, 4-(4-Chlorophenyl)-4-{7-[(methylsulfonyl)methyl]-1H-indol-3-yl}hexanonitrile]: the IC50 against androgen receptor (AR) was 5.28 µM; in assay [1], 16 µM; on CYP3A4 (setting [2]) it was 9.6 µM; at CYP3A4 (setting [3]) it was greater than 20 µM.

As to `CS(=O)(=O)Cc1cccc2c(C3(C4CC4)CCc4cc(F)ccc43)c[nH]c12` (stereo not shown) [Example 107, 3-(1-Cyclopropyl-5-fluoro-2,3-dihydro-1H-inden-1-yl)-7-[(methylsulfonyl)methyl]-1H-indole], the IC50 against androgen receptor (AR) was 3.33 µM; in assay [1] it was 4.83 µM; at CYP3A4 (setting [2]), 12.9 µM; at CYP3A4 (setting [3]) it was greater than 20 µM.

For the compound `CS(=O)(=O)Cc1cc(F)cc2c(C(c3ccc(Cl)cc3F)C3CC3C#N)c[nH]c12` (single isomer, unassigned) [Example 273-1-2, 2-[(4-Chloro-2-fluorophenyl){5-fluoro-7-[(methylsulfonyl)methyl]-1H-indol-3-yl}methyl]cyclopropanecarbonitrile], the IC50 against androgen receptor (AR) was 0.98 µM; in assay [1], 10 µM; on CYP3A4 (setting [2]), 13.7 µM; at CYP3A4 (setting [3]) it was greater than 20 µM.

As to `CS(=O)(=O)Cc1cccc2c(C(CCC#N)c3ccc4sccc4c3)c[nH]c12` (stereo not shown) [Example 73, 4-(1-Benzothiophen-5-yl)-4-{7-[(methylsulfonyl)methyl]-1H-indol-3-yl}butanonitrile], the IC50 was 5.22 µM against androgen receptor (AR), 6.44 µM in assay [1], 16.6 µM on CYP3A4 (setting [2]) and greater than 20 µM on CYP3A4 (setting [3]).

For the compound `CS(=O)(=O)Cc1cccc2c(C(c3ccc(Cl)cc3)C3CC3(F)F)c[nH]c12` (single isomer, unassigned) [Example 261-1, 3-[(4-Chlorophenyl)(2,2-difluorocyclopropyl)methyl]-7-[(methylsulfonyl)methyl]-1H-indole], the IC50 was 5.64 µM at androgen receptor (AR), 12.3 µM in assay [1], 19 µM at CYP3A4 (setting [2]) and greater than 20 µM on CYP3A4 (setting [3]).

For `CS(=O)(=O)Cc1cccc2c(C(c3ccc(F)cc3)c3ccc(C(F)(F)F)cc3)c[nH]c12` (stereo not shown) [Example 113, 3-{(4-Fluorophenyl) [4-(trifluoromethyl)phenyl]methyl}-7-[(methylsulfonyl)methyl]-1H-indole], the IC50 on androgen receptor (AR) is 3.22 µM; in assay [1], 7.24 µM; at CYP3A4 (setting [2]), greater than 20 µM; on CYP3A4 (setting [3]) it was greater than 20 µM.

As for `CCC(CCO)(c1ccc(Cl)cc1)c1c[nH]c2c(CS(C)(=O)=O)cccc12` (stereo not shown) [Example 147, 3-(4-Chlorophenyl)-3-{7-[(methylsulfonyl)methyl]-1H-indol-3-yl}pentan-1-ol], the IC50 on androgen receptor (AR) is 3.02 µM; in assay [1], 1.42 µM; at CYP3A4 (setting [2]), 8.8 µM; on CYP3A4 (setting [3]) it was greater than 20 µM.

For the compound `CS(=O)(=O)Cc1cccc2c(C(CCC#N)c3ccc4c(c3)OC(F)(F)O4)c[nH]c12` (stereo not shown) [Example 169, 4-(2,2-Difluoro-1,3-benzodioxol-5-yl)-4-{7-[(methylsulfonyl)methyl]-1H-indol-3-yl}butanonitrile], the IC50 on androgen receptor (AR) was 2.28 µM; in assay [1], 6.57 µM; at CYP3A4 (setting [2]), 17 µM; on CYP3A4 (setting [3]), greater than 20 µM.

For the compound `CS(=O)(=O)Cc1cccc2c(C(CCC#N)c3ccc(Cl)cc3F)c[nH]c12` (single isomer, unassigned) [Example 59-1, 4-(4-Chloro-2-fluorophenyl)-4-{7-[(methylsulfonyl)methyl]-1H-indol-3-yl}butanonitrile], the IC50 was 7.76 µM against androgen receptor (AR), 10 µM in assay [1], 13.1 µM on CYP3A4 (setting [2]) and greater than 20 µM at CYP3A4 (setting [3]).

As for `CS(=O)(=O)Cc1cc(F)cc2c(C(c3ccc(C(F)(F)F)cc3F)C3CC3C#N)c[nH]c12` (single isomer, unassigned) [Example 271-1-1, 2-({5-Fluoro-7-[(methylsulfonyl)methyl]-1H-indol-3-yl}[2-fluoro-4-(trifluoro-methyl)phenyl]methyl)cyclopropanecarbonitrile], the IC50 on androgen receptor (AR) was 0.94 µM; in assay [1], 10 µM; on CYP3A4 (setting [2]), 25.6 µM; on CYP3A4 (setting [3]), greater than 40 µM.
